Test results from patent US9133104B2 (Chroma Therapeutics Ltd., priority 2005, dated 2015).

Columns and labels:
U937 cancer cell line = test: Cell inhibition assay (SRB cell viability), U937; format: cell-based; conditions: Homo sapiens, U-937, U937 cells, 72 h, IC50 range
Procedure: (§1) The corresponding cancer cell lines (Hela, U937 and HUT) growing in log phase were harvested and seeded at 1000 cells/well (200 ul final volume) into 96-well tissue culture plates. Following 24 h of cell growth cells were treated with compounds (final concentration of 20 uM). Plates were then re-incubated for a further 72 h before a sulphorhodamine B (SRB) cell viability assay was conducted according to Skehan 1990 J Natl Canc Inst 82, 1107-1112.
(§2) Data were expressed as a percentage inhibition of the control, measured in the absence of inhibitor, as follows:— % inhibition=100−((S^i/S^o)×100) where S^i is the signal in the presence of inhibitor and S^o is the signal in the presence of DMSO. IC50 values were determined by non-linear regression analysis, after fitting the results of eight data points to the equation for sigmoidal dose response with variable slope (% activity against log concentration of compound), using Graphpad Prism software. […] NT=Not tested

Hela cancer cell line = test: Cell inhibition assay (SRB cell viability), Hela; format: cell-based; conditions: Homo sapiens, HeLa, 72 h, Hela cells, IC50 range
How it was run: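 Log-phase Hela, U937 and HUT cells were seeded at 1000 cells/well, grown 24 h, then exposed to compound (20 uM final) for 72 h. Viability was read by sulphorhodamine B staining and expressed as % inhibition relative to DMSO control. IC50 values came from sigmoidal variable-slope fits of eight concentrations.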

HUT cancer cell line = test: Cell inhibition assay (SRB cell viability), HUT; format: cell-based; conditions: HUT cells, 72 h, IC50 range
Procedure: as §1, §2

[1] = molecular target: T1, histone deacetylase activity (HeLa nuclear extract); test: HDAC fluorescent activity assay (Biomol Fluor de Lys), HeLa nuclear extract; format: biochemical; conditions: Fluor de Lys substrate, IC50 range
T1 construct: Histone deacetylase activity from crude nuclear extract derived from HeLa cells was used for screening
How it was run: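 Crude HeLa nuclear extract (20 mM Hepes, 100 mM KCl, 0.2 mM EDTA, 0.5 mM DTT, 0.2 mM PMSF, 20% glycerol) incubated with acetyl-lysine Fluor de Lys substrate ± inhibitor; developer generates fluorophore. Background-subtracted % of vehicle control; IC50 from eight-point variable-slope sigmoidal fit.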

SMILES	IC50 (U937 cancer cell line) [nM]	IC50 (Hela cancer cell line) [nM]	IC50 (HUT cancer cell line) [nM]	IC50 [1] [nM]
CC(C)(C)OC[C@H](NCc1cccc(NCc2ccc3cc(C(=O)NO)sc3c2)c1)C(=O)OC1CCCC1 [Compound 132, (S)-3-tert-Butoxy-2-{3-[(2-hydroxycarbamoyl-benzo[b]thiophen-6-ylmethyl)-amino]-benzylamino}-propionic acid cyclopentyl ester]	330 to 3300	> 3300	330 to 3300	101 to 1000
CC(C)(C)OC[C@H](NCc1cccc(NC(=O)CCCCCCC(=O)NO)c1)C(=O)OC1CCCC1 [Compound 34, (S)-3-tert-Butoxy-2-[3-(7-hydroxycarbamoyl-heptanoylamino)-benzylamino]-propionic acid cyclopentyl ester]	< 330	330 to 3300	330 to 3300	101 to 1000
O=C(CCCCCCC(=O)N1CCCC1C(=O)N[C@H](C(=O)OC1CCCC1)c1ccccc1)NO (stereo partly drawn) [Compound 53, (S)-{[1-(7-Hydroxycarbamoyl-heptanoyl)-pyrrolidine-2-carbonyl]-amino}-phenyl-acetic acid cyclopentyl ester]	> 3300	> 3300	> 3300	> 1000
O=C(CCCCCCC(=O)Nc1cccc(CN[C@H](C(=O)O)c2ccccc2)c1)NO [Compound 37, (S)-[3-(7-Hydroxycarbamoyl-heptanoylamino)-benzylamino]-phenyl-acetic acid]	> 3300	> 3300	> 3300	101 to 1000
CC(OC(C)(C)C)[C@H](NCc1ccc(CNCc2ccc3cc(C(=O)NO)sc3c2)cc1)C(=O)OC1CCCC1 (stereo partly drawn) [Compound 108, (S)-3-tert-Butoxy-2-(4-{[(2-hydroxycarbamoyl-benzo[b]thiophen-6-ylmethyl)-amino]-methyl}-benzylamino)-butyric acid cyclopentyl ester]	330 to 3300	330 to 3300	330 to 3300	101 to 1000
O=C(CCCCCCC(=O)N1Cc2[nH]c3ccccc3c2C[C@H]1C(=O)N[C@@H](Cc1ccccc1)C(=O)O)NO [Compound 8, (S)-2-{[(S)-2-(7-Hydroxycarbamoyl-heptanoyl)-2,3,4,9-tetrahydro-1H-beta-carboline-3-carbonyl]-amino}-3-phenyl-propionic acid]	> 3300	> 3300	> 3300	101 to 1000
O=C(CCCCCCC(=O)N1CCc2c([nH]c3ccccc23)C1C(=O)N[C@H](C(=O)O)c1ccccc1)NO (stereo partly drawn) [Compound 10, (S)-{[2-(7-Hydroxycarbamoyl-heptanoyl)-2,3,4,9-tetrahydro-1H-beta-carboline-1-carbonyl]amino}-phenyl-acetic acid]	> 3300	> 3300	> 3300	< 100
O=C(CCCCCCC(=O)Nc1ccc(CN[C@@H](Cc2ccccc2)C(=O)OC2CCCC2)cc1)NO [Compound 91, (S)-2-[4-(7-Hydroxycarbamoyl-heptanoylamino)-benzylamino]-3-phenyl-propionic acid cyclopentyl ester]	330 to 3300	> 3300	330 to 3300	101 to 1000
O=C(CCCCCCC(=O)N1CCCC1C(=O)N[C@@H](Cc1ccccc1)C(=O)OC1CCCC1)NO (stereo partly drawn) [Compound 56, (S)-2-{[1-(7-Hydroxycarbamoyl-heptanoyl)-pyrrolidine-2-carbonyl]-amino}-3-phenyl-propionic acid cyclopentyl ester]	> 3300	> 3300	> 3300	> 1000
O=C(CCCCCCC(=O)N1CCc2ccc(C(=O)N[C@H](C(=O)OC3CCCC3)c3ccccc3)cc2C1)NO [Compound 15, (S)-{[2-(7-Hydroxycarbamoyl-heptanoyl)-1,2,3,4-tetrahydro-isoquinoline-7-carbonyl]-amino}-phenyl-acetic acid cyclopentyl ester]	330 to 3300	> 3300	330 to 3300	> 1000

Second part, the molecule after the results:

IC50 (U937 cancer cell line) [nM]	IC50 (Hela cancer cell line) [nM]	IC50 (HUT cancer cell line) [nM]	IC50 [1] [nM]	SMILES
< 330	330 to 3300	330 to 3300	101 to 1000	O=C(NO)c1cc2ccc(CNCc3ccc(CN[C@@H](Cc4ccccc4)C(=O)OC4CCCC4)cc3)cc2s1 [Compound 104, (S)-2-(4-{[(2-Hydroxycarbamoyl-benzo[b]thiophen-6-ylmethyl)-amino]-methyl}-benzylamino)-3-phenyl-propionic acid cyclopentyl ester]
330 to 3300	330 to 3300	330 to 3300	101 to 1000	O=C(CCCCCCC(=O)N1Cc2[nH]c3ccccc3c2[C@H](C(=O)N[C@@H](Cc2ccccc2)C(=O)OC2CCCC2)C1)NO [Compound 58, (S)-2-{[(S)-2-(7-Hydroxycarbamoyl-heptanoyl)-2,3,4,9-tetrahydro-1H-beta-carboline-4-carbonyl]-amino}-3-phenyl-propionic acid cyclopentyl ester]
330 to 3300	> 3300	> 3300	> 1000	O=C(NO)c1cc2ccc(CNc3cccc(CN[C@H](C(=O)OC4CCCC4)C4CCCCC4)c3)cc2s1 [Compound 131, (S)-{3-[(2-Hydroxycarbamoyl-benzo[b]thiophen-6-ylmethyl)-amino]-benzylamino}-cyclohexyl-acetic acid cyclopentyl ester]
330 to 3300	> 3300	> 3300	> 1000	O=C(CCCCCCC(=O)N1Cc2[nH]c3ccccc3c2C[C@H]1C(=O)N[C@H](C(=O)OC1CCCC1)c1ccccc1)NO [Compound 3, (S)-{[(S)-2-(7-Hydroxycarbamoyl-heptanoyl)-2,3,4,9-tetrahydro-1H-beta-carboline-3-carbonyl]-amino}-phenyl-acetic acid cyclopentyl ester]
< 330	330 to 3300	330 to 3300	101 to 1000	O=C(CCCCCCC(=O)Nc1cccc(CN[C@@H](CCc2ccccc2)C(=O)OC2CCCC2)c1)NO [Compound 31, (S)-2-[3-(7-Hydroxycarbamoyl-heptanoylamino)-benzylamino]-4-phenyl-butyric acid cyclopentyl ester]
330 to 3300	330 to 3300	330 to 3300	101 to 1000	CC(C)C[C@H](NC(=O)c1ccc(NC(=O)CCCCCCC(=O)NO)cc1)C(=O)OC1CCCC1 [Compound 98, (S)-2-[4-(7-Hydroxycarbamoyl-heptanoylamino)-benzoylamino]-4-methyl-pentanoic acid cyclopentyl ester]
< 330	> 3300	330 to 3300	101 to 1000	O=C(CCCCCCC(=O)Nc1ccc(CN[C@H](C(=O)OC2CCCC2)C2CCCCC2)cc1)NO [Compound 86, (S)-Cyclohexyl-[4-(7-hydroxycarbamoyl-heptanoylamino)-benzylamino]-acetic acid cyclopentyl ester]
< 330	< 330	< 330	< 100	O=C(NO)c1cc2ccc(CNCc3ccc(CN4CCC[C@H]4C(=O)OC4CCCC4)cc3)cc2s1 [Compound 111, (S)-1-(4-{[(2-Hydroxycarbamoyl-benzo[b]thiophen-6-ylmethyl)-amino]-methyl}-benzyl)-pyrrolidine-2-carboxylic acid cyclopentyl ester]
330 to 3300	330 to 3300	330 to 3300	101 to 1000	O=C(CCCCCCC(=O)Nc1ccc(CN[C@@H](C(=O)OC2CCCC2)c2ccccc2)cc1)NO [Compound 83, (R)-[4-(7-Hydroxycarbamoyl-heptanoylamino)-benzylamino]-phenyl-acetic acid cyclopentyl ester]
330 to 3300	> 3300	330 to 3300	101 to 1000	CC(C)C[C@H](NC(=O)[C@@H]1Cc2ccccc2CN1C(=O)CCCCCCC(=O)NO)C(=O)OC1CCCC1 [Compound 51, (S)-2-{[(S)-2-(7-Hydroxycarbamoyl-heptanoyl)-1,2,3,4-tetrahydro-isoquinoline-3-carbonyl]-amino}-4-methyl-pentanoic acid cyclopentyl ester]
< 330	< 330	< 330	< 100	C[C@H](NCc1ccc(CNCc2ccc3cc(C(=O)NO)sc3c2)cc1)C(=O)OC1CCCC1 [Compound 118, (S)-2-(4-{[(2-Hydroxycarbamoyl-benzo[b]thiophen-6-ylmethyl)-amino]-methyl}-benzylamino)-propionic acid cyclopentyl ester]
< 330	330 to 3300	< 330	< 100	O=C(NO)c1cc2ccc(CNCc3ccc(CN[C@@H](Cc4ccc(O)cc4)C(=O)OC4CCCC4)cc3)cc2s1 [Compound 106, (S)-2-(4-{[(2-Hydroxycarbamoyl-benzo[b]thiophen-6-ylmethyl)-amino]-methyl}-benzylamino)-3-(4-hydroxy-phenyl)-propionic acid cyclopentyl ester]
